Data on 1 compound can be found in paper PMC6930524, “A Prospective Repurposing of Dantrolene as a Multitarget Agent for Alzheimer’s Disease” (Molecules, 2019).

Each structure is given as a SMILES string.

The target of one experiment is T1, human MAO B (hMAO B) (Homo sapiens, UniProt P27338).
T1 construct: purchased Sigma-Aldrich Europe (Milan, Italy); host or cells: baculovirus infected insect cells (microsomes)
T1 sequence (P27338 1-520): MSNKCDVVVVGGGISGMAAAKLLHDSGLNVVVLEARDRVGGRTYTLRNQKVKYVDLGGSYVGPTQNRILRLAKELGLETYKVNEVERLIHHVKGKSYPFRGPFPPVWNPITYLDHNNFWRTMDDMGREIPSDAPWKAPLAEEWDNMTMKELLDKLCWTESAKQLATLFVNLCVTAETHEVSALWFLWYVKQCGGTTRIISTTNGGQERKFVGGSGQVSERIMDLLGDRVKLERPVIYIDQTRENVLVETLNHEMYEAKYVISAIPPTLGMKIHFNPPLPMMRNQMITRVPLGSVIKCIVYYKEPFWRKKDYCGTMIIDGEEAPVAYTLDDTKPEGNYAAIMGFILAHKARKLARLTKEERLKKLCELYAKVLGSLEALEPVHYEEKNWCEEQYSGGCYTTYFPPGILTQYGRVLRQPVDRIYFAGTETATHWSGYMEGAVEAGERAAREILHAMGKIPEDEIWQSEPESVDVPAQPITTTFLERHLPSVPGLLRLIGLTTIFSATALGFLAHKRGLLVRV
Briefly: biochemical.

Experiment [1] concerns the target T2, carnitine/acylcarnitine carrier (CAC) in intact rat liver mitochondria (Rattus norvegicus, UniProt P97521).
T2 construct: The measurement of CAC activity in isolated entire mitochondria has been performed as previously described; from tissue; host or cells: rat liver mitochondria (intact organelles)
T2 sequence (P97521 1-301): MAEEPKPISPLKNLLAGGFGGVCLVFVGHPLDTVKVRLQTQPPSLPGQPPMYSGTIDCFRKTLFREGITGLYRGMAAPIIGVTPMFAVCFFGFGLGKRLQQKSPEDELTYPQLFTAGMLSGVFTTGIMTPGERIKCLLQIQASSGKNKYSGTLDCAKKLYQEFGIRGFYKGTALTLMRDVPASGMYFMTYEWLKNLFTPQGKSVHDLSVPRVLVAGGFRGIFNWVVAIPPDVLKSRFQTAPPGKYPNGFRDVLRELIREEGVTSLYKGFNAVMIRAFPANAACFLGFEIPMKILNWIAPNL
The experiment is described as follows: [3H]-carnitine uptake (CAC transport) in intact mitochondria. The class given is biochemical. Conditions: 50 μM, after 120 min, 0.05 mM [3H]-carnitine. The procedure:
The purification of crude rat mitochondria and the measurement of CAC transport activity are described in Materials and Methods. The uptake of carnitine was started by adding 0.05 mM [^3H]-carnitine in the presence or absence of 50 μM DAN (dissolved in 1:1 DMSO/H2O). The transport activity was inhibited at various times by adding cold 1 mM N-ethylmaleimide (NEM) in a buffer containing 150 mM sucrose, 50 mM TRIS-HCl, 50 mM KCl. […] Addition of DAN to intact mitochondria induced an increase of transport function up to 41% after 120 min.
In order to isolate crude mitochondria from rat liver, a standard protocol was performed, involving cell destruction by mechanical stress, isolation by differential centrifugation in order to eliminate various subcellular contaminations, and purification by centrifugation on colloidal silica Percoll 30% gradient. The average purity of the mitochondrial preparation was monitored by measuring the specific activity of alkaline phosphatase (EC 3.1.3.1). The specific activity of alkaline phosphatase, in the mitochondria preparations was measured at 37 °C as substrate consumed per min per mg protein [55]. […] The purified mitochondria (5 mg/100 μL) were incubated for 2 h with 20 mM carnitine, washed three times with a buffer containing 150 mM sucrose, 50 mM TRIS-HCl, 50 mM KCl, and the transport activity was measured. […]

The next experiment deals with T3, hMAO A (Homo sapiens, UniProt P21397).
T3 sequence (P21397 1-527): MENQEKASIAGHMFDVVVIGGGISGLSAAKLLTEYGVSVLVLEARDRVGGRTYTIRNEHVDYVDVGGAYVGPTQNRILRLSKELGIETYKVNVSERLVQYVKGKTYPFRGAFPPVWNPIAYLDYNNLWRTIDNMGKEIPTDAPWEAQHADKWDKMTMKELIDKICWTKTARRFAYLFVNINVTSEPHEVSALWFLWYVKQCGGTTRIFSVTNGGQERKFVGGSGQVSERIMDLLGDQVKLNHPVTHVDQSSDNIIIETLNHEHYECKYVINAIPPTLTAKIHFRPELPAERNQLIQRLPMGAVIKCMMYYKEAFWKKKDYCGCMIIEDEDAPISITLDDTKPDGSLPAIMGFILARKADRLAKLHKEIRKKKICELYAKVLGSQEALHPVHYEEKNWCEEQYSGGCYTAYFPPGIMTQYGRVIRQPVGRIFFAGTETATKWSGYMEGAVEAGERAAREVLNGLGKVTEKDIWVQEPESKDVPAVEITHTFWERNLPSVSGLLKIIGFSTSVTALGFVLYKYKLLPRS
The experiment is described as follows: biochemical.

Procedure for hMAO A: Selectivity over the corresponding isoforms hMAO A and butyrylcholinesterase (hBChE) was also verified.
(§1) An already published protocol using human recombinant monoamine oxidases A (250 U/mg) and B (59 U/mg; microsomes from baculovirus infected insect cells) [29] was used by applying a 96-well plate technique (instrument Infinite M1000 Pro, Tecan, Cernusco s.N., Italy). Briefly, compounds at a concentration ranging from 30 to 0.01 μM were preincubated 20 min at 37 °C with substrate kynuramine, in phosphate buffer 8.0 made 0.39 osmolar with KCl. After addition of enzyme and further 30 min of incubation, NaOH was added and the fluorescence read at 310/400 excitation/emission wavelength. Experiments were performed in duplicates in black, flat-bottomed polystyrene 96-well microtiter plates (Greiner Bio-One GmbH, Frickenhausen, Germany). […] Inhibition values and kinetics were calculated by means of Prism (GraphPad Prism version 5.00 for Windows, GraphPad Software, San Diego, CA, USA).
Source text for human MAO B (hMAO B): Routine kynuramine fluorescence [29] and Ellman’s spectrophotometric [30, 31] assays were used for in vitro inhibition of human MAO B (hMAO B) and acetylcholinesterase (hAChE), respectively. Selectivity over the corresponding isoforms hMAO A and butyrylcholinesterase (hBChE) was also verified.
as §1

Turning to `O=C1CN(/N=C/c2ccc(-c3ccc([N+](=O)[O-])cc3)o2)C(O)=N1` [Dantrolene], the IC50 against human MAO B (hMAO B) turned out to be 2.69 ± 0.44 µM; at hMAO A, 14 ± 1 µM. In addition, the “hMAO B inhibition mechanism” value on human MAO B (hMAO B) (Michaelis–Menten / Lineweaver–Burk, substrate kynuramine) is reported as “comp”. This compound also returned a Ki at human MAO B (hMAO B) (substrate kynuramine, mean ± SEM) of 0.96 ± 0.09 µM. Also, the “increase of CAC transport function in intact mitochondria” value in experiment [1] came to 41%.

What is called IC50 is the concentration that inhibits the measured activity by half. The low end stands for higher potency, the high end for lower potency. As usually defined, the Ki is a dissociation constant, usually derived from enzyme kinetics or from competition with a known ligand. Read a low Ki as tighter binding.
